Assay results reported in patent US11331299B2, “Medicinal use of serrulatane diterpenes” (The University of Sydney, priority 2016, dated 2022).
Like-named read-outs stand apart in the source and are kept apart here.

System: 280 human cancer cell lines
Test: OncoPanel cell proliferation assay (10-day)
Type: cell-based
Conditions: Homo sapiens; for GI50: read-out: Cell Count GI50; for IC50: read-out: Cell Count IC50; for EC50: read-out: Cell Count EC50
[1] = C-4-II, C-4 II, Female GU - Cervix
[2] = C-33-A, C-33A, Female GU - Cervix
[3] = CAL-62, CAL-62, Endocrine - Thyroid
[4] = CCF-STTG1, CCF-STTG1, CNS - Glioma
[5] = CGTH-W-1, CGTH-W-1, Endocrine - Thyroid
[6] = CHP-212, CHP-212, CNS - Neuroblastoma
[7] = COLO-320-HSR, Colo 320 HSR, Colon
[8] = COLO-829, COLO 829, Skin (Melanoma)
[9] = COR-L105, COR-L105, Lung - NSCLC
[10] = Ca-Ski, Ca Ski, Female GU - Ovary

For `CC(C)=CCC[C@H](C)[C@@H]1CC[C@@H](C)c2c1cc(C)c(O)c2O` [Compound 4, 7,8-dihydroxyserrulat-14-ene], the GI50 (BT-474, BT474, Breast) was 25 µM, the IC50 (BT-474, BT474, Breast) was 25.7 µM and the EC50 (BT-549, BT-549, Breast) was 15.3 µM. It also gave a GI50 (BT-549, BT-549, Breast) of 15.1 µM, an IC50 (BT-549, BT-549, Breast) of 15.3 µM and an EC50 (BV-173, BV-173, Leukemia) of 3.56 µM. The GI50 (BV-173, BV-173, Leukemia) was 3.55 µM, the IC50 (BV-173, BV-173, Leukemia) was 3.56 µM and the EC50 (BXPC-3, BxPC-3, Pancreas) was 13.4 µM. It also gave a GI50 (BXPC-3, BxPC-3, Pancreas) of 13.4 µM, an IC50 (BXPC-3, BxPC-3, Pancreas) of 13.4 µM and an EC50 (BeWo, Placenta) of 15.6 µM. It also gave a GI50 (BeWo, Placenta) of 15.5 µM, an IC50 (BeWo, Placenta) of 15.6 µM and an EC50 (C32, Skin (Melanoma)) of 7.84 µM. It also gave a GI50 (C32, Skin (Melanoma)) of 6.37 µM, an IC50 (C32, Skin (Melanoma)) of 7.84 µM and an EC50 [1] of 12.6 µM. For the same molecule, the GI50 [1] was 12.5 µM, the IC50 [1] was 12.6 µM and the EC50 [2] was 9.57 µM. It also gave a GI50 [2] of 9.42 µM, an IC50 [2] of 9.57 µM and an EC50 (CA46, CA46, Lymphoma) of 4.06 µM. It also gave a GI50 (CA46, CA46, Lymphoma) of 4.06 µM, an IC50 (CA46, CA46, Lymphoma) of 4.06 µM and an EC50 (CAKI-1, Caki-1, Kidney) of 14.4 µM. For the same molecule, the GI50 (CAKI-1, Caki-1, Kidney) was 14.1 µM, the IC50 (CAKI-1, Caki-1, Kidney) was 14.4 µM and the EC50 (CAKI-2, Caki-2, Kidney) was 13.1 µM. For the same molecule, the GI50 (CAKI-2, Caki-2, Kidney) was 13.5 µM, the IC50 (CAKI-2, Caki-2, Kidney) was 13.6 µM and the EC50 (CAL-27, Cal 27, Head and Neck) was 12.3 µM. The GI50 (CAL-27, Cal 27, Head and Neck) was 12.2 µM, the IC50 (CAL-27, Cal 27, Head and Neck) was 12.3 µM and the EC50 [3] was 5.36 µM. It also gave a GI50 [3] of 5.36 µM, an IC50 [3] of 5.36 µM and an EC50 (CAMA-1, CAMA-1, Breast) of over 30 µM. The GI50 (CAMA-1, CAMA-1, Breast) was over 30 µM, the IC50 (CAMA-1, CAMA-1, Breast) was over 30 µM and the EC50 (CAPAN-1, Capan-1, Pancreas) was over 30 µM. It also gave a GI50 (CAPAN-1, Capan-1, Pancreas) of over 30 µM, an IC50 (CAPAN-1, Capan-1, Pancreas) of over 30 µM and an EC50 [4] of 19.7 µM. For the same molecule, the GI50 [4] was 16 µM, the IC50 [4] was 19.7 µM and the EC50 (CCRF-CEM, CCRFCEM, Leukemia) was 4.92 µM. It also gave a GI50 (CCRF-CEM, CCRFCEM, Leukemia) of 4.91 µM, an IC50 (CCRF-CEM, CCRFCEM, Leukemia) of 4.93 µM and an EC50 (CEM/C1, CEM-C1, Leukemia) of 1.47 µM. It also gave a GI50 (CEM/C1, CEM-C1, Leukemia) of 1.47 µM, an IC50 (CEM/C1, CEM-C1, Leukemia) of 1.47 µM and an EC50 (CFPAC-1, CFPAC-1, Pancreas) of 25.2 µM. The GI50 (CFPAC-1, CFPAC-1, Pancreas) was 25.1 µM, the IC50 (CFPAC-1, CFPAC-1, Pancreas) was 25.2 µM and the EC50 [5] was 3.45 µM. The GI50 [5] was 3.47 µM, the IC50 [5] was 3.48 µM and the EC50 (CHL-1, CHL-1, Skin (Melanoma)) was 11.9 µM. The GI50 (CHL-1, CHL-1, Skin (Melanoma)) was 11.8 µM, the IC50 (CHL-1, CHL-1, Skin (Melanoma)) was 11.9 µM and the EC50 [6] was 9.77 µM. It also gave a GI50 [6] of 9.74 µM, an IC50 [6] of 9.78 µM and an EC50 (CML-T1, CML-T1, Leukemia) of 3.93 µM. It also gave a GI50 (CML-T1, CML-T1, Leukemia) of 3.93 µM, an IC50 (CML-T1, CML-T1, Leukemia) of 3.93 µM and an EC50 (COLO 201, Colo 201, Colon) of 4.07 µM. It also gave a GI50 (COLO 201, Colo 201, Colon) of 4.04 µM, an IC50 (COLO 201, Colo 201, Colon) of 4.07 µM and an EC50 (COLO 205, Colo 205, Colon) of 11.9 µM. The GI50 (COLO 205, Colo 205, Colon) was 11.9 µM, the IC50 (COLO 205, Colo 205, Colon) was 11.9 µM and the EC50 (COLO 320DM, Colon) was 7.91 µM. It also gave a GI50 (COLO 320DM, Colon) of 7.87 µM, an IC50 (COLO 320DM, Colon) of 7.91 µM and an EC50 [7] of 5.15 µM. The GI50 [7] was 5.15 µM, the IC50 [7] was 5.16 µM and the EC50 [8] was 3.71 µM. The GI50 [8] was 3.29 µM, the IC50 [8] was 3.71 µM and the EC50 (COR-L23, COR-L23, Lung - NSCLC) was 13.3 µM. It also gave a GI50 (COR-L23, COR-L23, Lung - NSCLC) of 13.2 µM, an IC50 (COR-L23, COR-L23, Lung - NSCLC) of 13.3 µM and an EC50 [9] of 8.66 µM. The GI50 [9] was 8.47 µM, the IC50 [9] was 8.66 µM and the EC50 (CRO-AP2, CRO-AP2, Lymphoma) was 9.94 µM. It also gave a GI50 (CRO-AP2, CRO-AP2, Lymphoma) of 9.88 µM, an IC50 (CRO-AP2, CRO-AP2, Lymphoma) of 9.94 µM and an EC50 [10] of 17.6 µM. The GI50 [10] was 17.6 µM, the IC50 [10] was 17.6 µM and the EC50 (Calu-1, Calu1, Lung - NSCLC) was 8.88 µM. It also gave a GI50 (Calu-1, Calu1, Lung - NSCLC) of 8.77 µM, an IC50 (Calu-1, Calu1, Lung - NSCLC) of 8.88 µM and an EC50 (Calu-6, Calu6, Lung - NSCLC) of 25 µM. The GI50 (Calu-6, Calu6, Lung - NSCLC) was 24.5 µM and the IC50 (Calu-6, Calu6, Lung - NSCLC) was 25 µM.
